From US12187667B2, “Preparation systems and preparation methods for high-quality xylitol crystals” (ZHEJIANG HUAKANG PHARMACEUTICAL CO., LTD., priority 2022, dated 2025)

Tests used:
[1] = pH of xylitol crystal prepared from xylitol solutions with different compositions; type: physicochemical; settings: crystal prepared from xylitol solution of the stated composition
From the text: In the production process of xylitol, there are two main factors can affect the pH of the product, one of which is ion exchange process. When xylitol solution passes through cation and anion exchange columns, H^+ and OH^− in resins are exchanged out, respectively. Due to the difference of exchange capacity between cation exchange column and anion exchange column, xylitol crystal products may have different pH. The other factor affecting the pH of xylitol product is the difference in composition of xylitol solution, which leads to a great difference in the pH of xylitol crystal.

[2] = cited from earlier work
[3] = pH of crude xylitol crystal after first crystallization; type: physicochemical; settings: after first centrifuge and fluidization drying, before recrystallization
Protocol: Step 12, constant vacuum degree of the first crystallization kettle 7 was maintained at −0.095 MPa to further evaporate the xylitol concentrate solution. When temperature of the first crystallization kettle 7 dropped to 65° C., 0.001% xylitol crystal seeds (80-100 mesh) were added, and the system was maintained at constant temperature of 65° C. for evaporation and crystallization for 8 h. Finally, a crude xylitol crystal with purity of 99.5% and pH of 4.87 was obtained by centrifugal separation treatment of the first centrifuge 8 and fluidization drying treatment of the fluidization drying bed 9. At the same time, the primary centrifugal mother liquor C with purity of 90% obtained by the centrifugal separation treatment of the first centrifuge 8 was backset to the blending tank 1.
Step 22, constant vacuum degree of the first crystallization kettle 7 was maintained at −0.095 MPa to further evaporate the xylitol concentrate solution. When temperature of the first crystallization kettle 7 dropped to 64° C., 0.001% xylitol crystal seeds (100-120 mesh) were added, and the system was maintained at constant temperature of 64° C. for evaporation and crystallization for 12 h. Finally, crude xylitol crystal with purity of 99.6% and pH of 4.9 was obtained by centrifugal separation treatment of the first centrifuge 8 and fluidization drying treatment of the fluidization drying bed 9. At the same time, the primary centrifugal mother liquor C with purity of 89.5% obtained by the centrifugal separation treatment of the first centrifuge 8 was backset to the blending tank 1.
Step 32, constant vacuum degree of the first crystallization kettle 7 was maintained at −0.095 MPa to further evaporate the xylitol concentrate solution. When temperature of the first crystallization kettle 7 dropped to 66° C., 0.002% xylitol crystal seeds (60-80 mesh) were added, and the system was maintained at constant temperature of 66° C. for evaporation and crystallization for 10 h. […]

[4] = Acidity (pH) of xylitol crystal by the Chinese Pharmacopoeia method, 10 g crystal to 20 ml water; type: physicochemical; settings: 10 g crystal to 20 ml pure water; for pH of xylitol after one month storage: crystal stored at room temperature for one month; for pH of xylitol after one week storage: crystal stored at room temperature for one week; for pH of xylitol: freshly prepared crystal
Protocol: The acidity of prepared xylitol crystal B was measured according to the method in the Chinese Pharmacopoeia. Xylitol solution was prepared with pure water in a proportion of 10 g crystal to 20 ml water. The pH of the xylitol solution in this Example was measured to be 6.06. After the obtained xylitol crystal B were stored at room temperature for one week, the pH of the xylitol solution was measured to be 6.03 using the same method. After the xylitol crystal was stored at room temperature for one month, the pH of the xylitol solution was measured to be 6.01 using the same method. The acidity of prepared xylitol crystal B was measured according to the method in the Chinese Pharmacopoeia. Xylitol solution was prepared with pure water in a proportion of 10 g crystal to 20 ml water. The pH of the xylitol solution in this Example was measured to be 6.12. After the obtained xylitol crystal B was stored at room temperature for one week, the pH of the xylitol solution was measured to be 6.08 using the same method. After the xylitol crystal was stored at room temperature for one month, the pH of the xylitol solution was measured to be 6.05 using the same method. The acidity of prepared xylitol crystal B was measured according to the method in the Chinese Pharmacopoeia. Xylitol solution was prepared with pure water in a proportion of 10 g crystal to 20 ml water. The pH of the xylitol solution in this Example was measured to be 6.09. After the obtained xylitol crystal B was stored at room temperature for one week, the pH of the xylitol solution was measured to be 6.07 using the same method. After the xylitol crystals were stored at room temperature for one month, the pH of the xylitol solution was measured to be 6.05 using the same method. The acidity of prepared xylitol crystal was measured according to the method in the Chinese Pharmacopoeia. Xylitol solution was prepared with pure water in a proportion of 10 g crystal to 20 ml water. The pH of the xylitol solution in this comparative example was measured to be 5.02. After the obtained xylitol crystals was stored at room temperature for one week, the pH of the xylitol solution was measured to be 4.85 using the same method. After the xylitol crystal was stored at room temperature for one month, the pH of the xylitol solution was measured to be 4.64 using the same method. The acidity of prepared xylitol crystal was measured according to the method in the Chinese Pharmacopoeia. Xylitol solution was prepared with pure water in a proportion of 10 g crystal to 20 ml water. The pH of the xylitol solution in this Contrast was measured to be 5.04. After the obtained xylitol crystal was stored at room temperature for one week, the pH of the xylitol solution was measured to be 4.81 using the same method. After the xylitol crystal was stored at room temperature for one month, the pH of the xylitol solution was measured to be 4.68 using the same method. The acidity of prepared xylitol crystal was measured according to the method in the Chinese Pharmacopoeia. Xylitol solution was prepared with pure water in a proportion of 10 g crystal to 20 ml water. The pH of the xylitol solution in this comparative example was measured to be 5.03. After the obtained xylitol crystal was stored at room temperature for one week, the pH of the xylitol solution was measured to be 4.90 using the same method. After the xylitol crystal was stored at room temperature for one month, the pH of the xylitol solution was measured to be 4.73 using the same method.

[5] = listed as Comparative Example 1
[6] = listed as Comparative Example 2
[7] = listed as Comparative Example 3

pH of xylitol after one month storage [4] | pH of xylitol after one week storage [4] | pH of xylitol [4] | SMILES | also measured
– | – | – | OC[C@@H](O)[C@H](O)[C@@H](O)CO [100% xylitol, xylitol] | pH of xylitol crystal [1]: 6.02
– | – | – | O=C[C@@H](O)[C@H](O)[C@H](O)CO [Arabinose] | Acidity coefficient (pKa) [2]: 12.46 ± 0.2
– | – | – | OC[C@@H](O)[C@H](O)[C@@H](O)CO [Example 1 crude xylitol crystal, xylitol] | pH of crude xylitol crystal [3]: 4.87
6.01 | 6.03 | 6.06 | OC[C@@H](O)[C@H](O)[C@@H](O)CO [Example 1, xylitol] | –
– | – | – | OC[C@@H](O)[C@H](O)[C@@H](O)CO [Example 2 crude xylitol crystal, xylitol] | pH of crude xylitol crystal [3]: 4.9
6.05 | 6.08 | 6.12 | OC[C@@H](O)[C@H](O)[C@@H](O)CO [Example 2, xylitol] | –
– | – | – | OC[C@@H](O)[C@H](O)[C@@H](O)CO [Example 3 crude xylitol crystal, xylitol] | pH of crude xylitol crystal [3]: 4.99
6.05 | 6.07 | 6.09 | OC[C@@H](O)[C@H](O)[C@@H](O)CO [Example 3, xylitol] | –
– | – | – | OC[C@@H](O)[C@H](O)[C@@H](O)CO [Xylitol] | Acidity coefficient (pKa) [2]: 13.24 ± 0.2
– | – | – | O=C[C@H](O)[C@@H](O)[C@H](O)CO [Xylose] | Acidity coefficient (pKa) [2]: 12.14
4.64 | 4.85 | 5.02 | OC[C@@H](O)[C@H](O)[C@@H](O)CO [compound 1, xylitol] | pH of xylitol after one month storage [4, 5]: 4.64; pH of xylitol after one week storage [4, 5]: 4.85; pH of xylitol [4, 5]: 5.02
4.68 | 4.81 | 5.04 | OC[C@@H](O)[C@H](O)[C@@H](O)CO [compound 2, xylitol] | pH of xylitol after one month storage [4, 6]: 4.68; pH of xylitol after one week storage [4, 6]: 4.81; pH of xylitol [4, 6]: 5.04
4.73 | 4.90 | 5.03 | OC[C@@H](O)[C@H](O)[C@@H](O)CO [compound 3, xylitol] | pH of xylitol after one month storage [4, 7]: 4.73; pH of xylitol after one week storage [4, 7]: 4.90; pH of xylitol [4, 7]: 5.03
– | – | – | O=C[C@H](O)[C@@H](O)[C@@H](O)[C@H](O)CO [galactose] | Acidity coefficient (pKa) [2]: 12.35
